Tests used:
[1] = test system: HCC1428 breast cancer xenograft; test: HCC1428 breast cancer CDX model, tumor volume and body weight; type: in vivo, BALB/c nude mice; conditions: for % TGI: 25 days
Method: Two separate studies were performed. […] Groups of 8 animals each were established by random assignment. Tumor volumes and body weights were measured twice weekly. The tumor volume (TV) in mm^3 was estimated using the formula: TV=a×b^2/2, where a and b are the long and short diameters of a tumor, respectively. For each treatment group, if the mean TV at the end of study was greater than the mean tumor volume at treatment initiation, then tumor growth inhibition (TGI) was calculated using the formula: % TGI=[1-(Mean TreatedTVFinal−Mean Treated TVInitial)/(Mean Vehicle TVFinal−Mean VehicleTVInitial)]×100. If the mean TV of the treatment group at the end of study was less than the mean tumor volume at treatment initiation, then tumor regression (REG) was calculated using the formula: % REG=[(Mean Treated TVInitial−Mean Treated TVFinal)/Mean TreatedTVInitial]×100. Statistical analysis of end-of-study tumor volumes was performed using two-way repeated measures ANOVA followed by post hoc comparisons of the mean.
The PARP inhibitor niraparib was included as a comparator and dosed orally QD at a dose of 45 mg/kg.
The mice in the 50 mg/kg BID group were dosed every day whereas the mice in the […] were dosed for the first 5 days of each 7-day cycle, such that the total weekly dose was the same between these two groups. At the end of the study, tumor tissue was collected for the vehicle, 50 mg/kg BID, and 30, 50 and 100 mg/kg QD dose groups and formalin-fixed and paraffin embedded (FFPE) for γH2AX immunohistochemistry. γH2AX expression in FFPE tumor tissue was evaluated by staining and was performed using immunohistochemistry and validated antibody conditions at Histowiz (Long Island City, NY, USA). The γH2AX IHC images were then quantified in-house using QuPath software. The total number of nuclei objects per tumor section based on hematoxylin counter-staining (blue) were segmented using a Stardist algorithm and the number of γH2AX positive DAB (3,3′ Diaminobenzidine) stained cells (brown) quantified using object classification with a pre-trained random forest model based on DAB staining parameters including intensity and standard deviation.

[2] = test system: HBCx-22 breast cancer patient-derived xenograft; test: HBCx-22 breast cancer PDX model; type: in vivo, Hsd: Athymic Nude-Foxn1nu mice; conditions: 75 or 100 mg/kg BID, 42 days
Method: The PDX models were established by subcutaneous inoculation of HBCx-22 or HBCx-34 cells into Hsd: Athymic Nude-Foxn1nu mice. Breast tumor-bearing mice received estrogen diluted in drinking water (β-oestradiol, 8.5 mg/L) from the date of tumor inoculation until the end of the study to promote optimal growth of the ER^+ cell line. Groups of 10 animals each were established by random assignment. Tumor volumes and body weights were measured twice weekly. […] Statistical analysis of end-of-study tumor volumes was performed using the Kruskal-Wallis test with Dunn's multiple comparisons test (HBCx-34) or Brown-Forsythe test with Dunnett's T3 multiple comparisons test (HBCx-22).
Compound 1 was administered to mice orally twice daily (BID) for 42 days at a dose of 75 or 100 mg/kg based on body weight. […] Compound 1 was administered to mice orally BID for 35 days at doses of 75 or 100 mg/kg based on body weight.

`[2H]C([2H])(c1cnn(C)c1)N1C(=O)c2cc(S(=O)(=O)NC3(C)CC3)ccc2N2C1=NC[C@H]2C` [Compound 1, (R)-1-methyl-4-((1-methyl-1H-pyrazol-4-yl)methyl-d2)-N-(1-methylcyclopropyl)-5-oxo-1,2,4,5-tetrahydroimidazo[1,2-a]quinazoline-7-sulfonamide] was tested, and the “mean body loss over the treatment period” value ([1]; Study 1, 75 mg/kg BID) was under 4%, the “mean body weight change over the treatment period” value ([1]; Study 1, 100 mg/kg QD) was “mean body weight increase” and the “% TGI” value ([1]; Study 2, 10 mg/kg QD oral) was 26% TGI. The “% TGI” value ([1]; Study 2, 30 mg/kg QD oral) was 35% TGI, the “mean body weight loss during the treatment period” value ([1]; Study 2, all dose groups) was at most 2% and the “tolerability (body weight)” value [2] was “generally well tolerated”.

— US20260272936A1, “TREATMENT OF CANCER WITH A PARG INHIBITOR” (858 Therapeutics, Inc., priority 2023, published 2026)
